Experimental data reported in patent US4308251A, “Controlled release formulations of orally-active medicaments” (Boots Pharmaceuticals, Inc., priority 1980, dated 1981).

Columns and labels:
[1] = test system: patients with pain (chronic bursitis, knee injury); assay type: in vivo, human
Excerpt: patient two is a housewife who suffered a painful right shoulder for two years. Consultants believed this condition was a result of chronic bursitis.
patient three is a person who is employed full time in an accounting department of a small company. […] While skating they fell, causing a partial tear of the medial collateral ligament and medial meniscus of the left knee. Support wrappings and acetaminophen were tried. […] This dosage regimen was maintained throughout the patient's convalescence.
patient one sustained a traumatic injury to the medial portion of their right knee during a basketball game.

patients taking aspirin = conditions: background statement; cited from earlier work
[2] = Patient No. 1, aspirin as regularly prescribed

For CC(=O)Nc1ccc(O)cc1 [acetaminophen], the pain relief ([1]; Patient No. 2, regular acetaminophen) was “only partial and temporary”.

In the case of CC(=O)Oc1ccccc1C(=O)O [aspirin, acetylsalicylic acid], the “effect on shoulder pain” value [1, 2] is listed as “ineffective”, the side effects [1, 2] is listed as “epigastric discomfort” and the “patients considered treatment failures because of side effects” value (patients taking aspirin) is listed as “Approximately sixty”.
